Results reported in patent US20260125374A1, “PI3K-ALPHA INHIBITORS AND METHODS OF MAKING AND USING THE SAME” (Relay Therapeutics, Inc., priority 2021, published 2026).
Marks after values point to notes of the source that are not given here.

Assays:
[1] = cited from earlier work
[2] = Solubility in DCM/Methanol mixtures; assay type: physicochemical
Procedure: The solubility was evaluated on various ratio of DCM and Methanol mixtures.

[3] = Polymorph screening (equilibration, anti-solvent, slow evaporation, slow cooling, temperature cycling, heating-cooling; XRPD and SFC); assay type: physicochemical
Procedure: This polymorph screening program of compound I-1 free form was performed with two batches of the pure enantiomer. Both batches are crystalline and is assigned as Form A. The polymorphic behaviors of the enantiomer were investigated by equilibration at 25° C. and 50° C., equilibration under a temperature cycle, crystallization from hot saturated solutions by slow cooling, slow evaporation, precipitation by addition of anti-solvent, and DSC heating-cooling cycle experiments. Relative stability of identified polymorphs was investigated by competitive slurry experiments.
(§1) About 50 mg of I-1 Form A was weighed into a 2 mL glass vial and equilibrated in suitable amount of solvents (pretreated by molecular sieves) at 25° C. for 2 weeks with a stirring plate and with protection from light. Obtained suspensions were filtered with 0.45 μm nylon membrane and the solid parts (wet cake) were investigated by XRPD. When differences were observed, additional investigations were performed (e.g. DSC, TGA, ^1H-NMR, SFC).
as §1, with “into” for “into a”, “vials” for “vial”, “50°” for “25°”, “10 days” for “2 weeks”, “investigation was” for “investigations were”
I-1 Form A was dissolved in a good solvent. […] The solvents used were pretreated by molecular sieve. Precipitates were collected by filtration. The solid part (wet cake) was investigated by XRPD. […] When differences were observed, additional investigations were performed (e.g. DSC, TGA, ^1H-NMR, SFC).
Based on approximate solubility results, I-1 Form A was dissolved in suitable amount of solvents (pretreated by molecular sieves). Obtained solutions were filtered by 0.45 μm nylon filter. […] Solid residues were examined for their polymorphic form. When differences were observed, additional investigations were performed (e.g. DSC, TGA, ^1H-NMR, SFC).
Approximate 50 mg of batch I-1 Form A were dissolved in the minimal amount of selected solvents (without pretreatment by molecular sieves) at 50° C. Obtained solutions were filtered by 0.45 μm nylon filter. […] Precipitates were collected by filtration. The solid parts (wet cake) were investigated by XRPD. When differences were observed, additional investigations were performed (e.g. DSC, TGA, ^1H-NMR, SFC). When no precipitation was obtained or only a few solids were obtained, the solutions were placed at 5° C. for crystallization.
About 50 mg of I-1 Form A was equilibrated in different solvents (pretreated by molecular sieves) under a temperature cycle between 5° C. to 50° C. at a heating/cooling rate of 0.2° C./min for 10 cycles and with protection from light. After 10 cycles, precipitates were collected at 5° C. by filtration. The solid parts (wet cake) were investigated by XRPD. When differences were observed, additional investigations were performed (e.g. DSC, TGA, 1H-NMR, SFC).
Polymorphic behavior of I-1 Form A was investigated by two different heating-cooling cycles of DSC. Cycle 1:30° C. to 280° C. at 10° C./min; 280° C. to −20° C. at 20° C./min; reheat to 300° C. at 10° C./min. Cycle 2:30° C. to 280° C. at 10° C./min; 280° C. to-20° C. at 2° C./min; reheat to 300° C. at 10° C./min.

[4] = Stability of III-1 & I-1 solid; assay type: physicochemical; settings: after 38 days; initial 99.0%
[5] = Stability of the process (III-1 in solution); assay type: physicochemical
[6] = test system: PIK3CA-mediated AKT phosphorylation in MCF10A cells overexpressing hotspot PIK3CA mutations (H1047R, E542K, E545K); assay: MCF10A Cell-Based PIK3CA Kinase Assay (CisBio Phospho-AKT (Ser473) HTRF assay); settings: Homo sapiens, MCF-10A, 2 hours compound incubation, read-out: Cell - PD - MCF10A H1047R/−−2483 (IC50)
Procedure: Selected compounds of the present disclosure were tested in a MCF10A Cell-Based PIK3CA Kinase Assay, namely the CisBio Phospho-AKT (Ser473) HTRF assay, to measure the degree of PIK3CA-mediated AKT phosphorylation. MCF10A cells (immortalized non-transformed breast cell line) overexpressing hotspot PIK3CA mutations (including H1047R, E542K, and E545K mutations) were used. Cells were seeded at 5,000 cells per well in DMEM/F12 (Thermo Fisher Scientific) supplemented with […], 100 ng/ml Cholera Toxin, 10 μg/mL insulin, and 0.5% horse serum. Once plated, cells were placed in a 5% CO2, 37° C. incubator to adhere overnight.
The following day, compounds were added to the cell plates in 12 doses of 1:3 serial dilutions. The dose response curves were run in duplicate. Compound addition was carried out utilizing an Echo 55 Liquid Handler acoustic dispenser (Labcyte). The cell plates were incubated for 2 hours in a 5% CO2, 37° C. incubator. Following compound incubation, the cells were lysed for 60 min at room temperature. Finally, a 4-hour incubation with the HTRF antibodies was performed at room temperature. All reagents, both lysis buffer and antibodies, were used from the CisBio pAKT S473 HTRF assay kit, as per the manufacturers protocol. Plates were read on an Envision 2105 (Perkin Elmer), and the IC50 values were calculated using Genedata software.

[7] = Light and glassware influence on racemization of II-1; assay type: physicochemical
Procedure: The effect of glassware surface pH and light on II-1 racemization was evaluated.

[8] = Before stirring, 3 g product in solution
[9] = dissolved in DCM/MeOH/DMF, concentrated to 3V, 16 h, 40° C.
[10] = dissolved in MeOH, 34 h, 50° C.
[11] = dissolved in MeOH, 42 h, 50° C.
[12] = dissolved in MeOH, 60 h, 50° C.
[13] = dissolved in MeOH, stirred 18 h, 34° C.

Structure (SMILES): O=S(=O)(O)c1ccc2ccccc2c1 [Naphthalene-2-sulfonic acid]
- pKa(s) [1]: 0.17

Structure (SMILES): N#Cc1c(-c2cc(NC(=O)c3cc(F)cc(C(F)(F)F)c3)c3c(c2)C(=O)NC3c2cc(F)ccc2Cl)ccc2ncnn12 (racemic) [III-1, N-(3-(2-chloro-5-fluorophenyl)-6-(5-cyano-[1,2,4]triazolo[1,5-a]pyridin-6-yl)-1-oxoisoindolin-4-yl)-3-fluoro-5-(trifluoromethyl)benzamide]
- solubility in DCM/MeOH=90:10 mixture [2]: limited solubility
- ee %(SFC) ([3]; anti-solvent precipitation: MeOH / MTBE(4V), stirred at 25° C. for 23 days, SFC immediately after preparation): ee % (SFC): 2.7%*
- ee %(SFC) ([3]; equilibration at 50° C. for 10 days in ACN/water(80:20, v/v), SFC immediately after preparation): ee % (SFC): 50.7%*.
- ee %(SFC) ([3]; equilibration at 50° C. for 10 days in Acetone/water(60:40, v/v), SFC immediately after preparation): ee % (SFC): 56.9%*
- ee %(SFC) ([3]; equilibration at 50° C. for 10 days in EtOH/water(50:50, v/v), SFC after preparation for about 12 h): ee % (SFC): 75.0%#;
- ee %(SFC) ([3]; equilibration at 50° C. for 10 days in EtOH/water(50:50, v/v), SFC immediately after preparation): ee % (SFC): 76.9%*,
- ee %(SFC) ([3]; equilibration at 50° C. for 10 days in Methanol, SFC immediately after preparation): ee % (SFC): 48.4%*
- ee %(SFC) ([3]; slow evaporation from MeOH, SFC immediately after preparation): ee % (SFC): 68.6%*
- ee %(SFC) ([3]; solid from crystallization from DMF/Acetone water, SFC immediately after preparation): ee % (SFC): −0.3%*
- purity of solid after storage [4]: 99.1%
- HPLC/RRT Purity, RRT 1.00 (purity of III-1) [5, 8]: 96.23%
- HPLC/RRT Purity, impurity at RRT 0.41 [5, 8]: 0.10%
- HPLC/RRT Purity, impurity at RRT 0.94 [5, 8]: 0.62%
- HPLC/RRT Purity, impurity at RRT 1.37 [5, 8]: 1.98%
- HPLC/RRT Purity, impurity at RRT 1.38 [5, 8]: 0.31%
- impurity @RRT 1.26 generated ([5]; DCM/MeOH/DMF concentrated to 3V, 17 h at 40° C.): 0.15%
- impurity @RRT 0.74 generated ([5]; MeOH, over 18 h at 34° C.): 0.15%
- purity after stirring in MeOH ([5]; MeOH, over 18 h at 34° C.): 96.0%
- impurity @RRT 0.74 ([5]; MeOH, over 60 h at 50° C.): 3.44%
- purity after stirring in DCM/MeOH/DMF ([5]; concentrated to 3V under 40° C., stirred for 17 h at 40° C.): 94.57%
- HPLC/RRT Purity, RRT 1.00 (purity of III-1) [5, 9]: 94.57%
- HPLC/RRT Purity, impurity at RRT 0.41 [5, 9]: 0.11%
- HPLC/RRT Purity, impurity at RRT 0.74 [5, 9]: 0.03%
- HPLC/RRT Purity, impurity at RRT 0.94 [5, 9]: 0.68%
- HPLC/RRT Purity, impurity at RRT 1.26 [5, 9]: 0.33%
- HPLC/RRT Purity, impurity at RRT 1.37 [5, 9]: 2.51%
- HPLC/RRT Purity, impurity at RRT 1.38 [5, 9]: 0.46%
- HPLC/RRT Purity, RRT 1.00 (purity of III-1) [5, 10]: 93.53%
- HPLC/RRT Purity, impurity at RRT 0.41 [5, 10]: 0.15%
- HPLC/RRT Purity, impurity at RRT 0.74 [5, 10]: 2.49%
- HPLC/RRT Purity, impurity at RRT 0.94 [5, 10]: 0.67%
- HPLC/RRT Purity, impurity at RRT 0.96 [5, 10]: 0.20%
- HPLC/RRT Purity, impurity at RRT 1.26 [5, 10]: 0.19%
- HPLC/RRT Purity, impurity at RRT 1.37 [5, 10]: 2.13%
- HPLC/RRT Purity, impurity at RRT 1.38 [5, 10]: 0.26%
- HPLC/RRT Purity, RRT 1.00 (purity of III-1) [5, 11]: 92.67%
- HPLC/RRT Purity, impurity at RRT 0.41 [5, 11]: 0.17%
- HPLC/RRT Purity, impurity at RRT 0.74 [5, 11]: 2.98%
- HPLC/RRT Purity, impurity at RRT 0.94 [5, 11]: 0.67%
- HPLC/RRT Purity, impurity at RRT 0.96 [5, 11]: 0.25%
- HPLC/RRT Purity, impurity at RRT 1.26 [5, 11]: 0.38%
- HPLC/RRT Purity, impurity at RRT 1.37 [5, 11]: 2.15%
- HPLC/RRT Purity, impurity at RRT 1.38 [5, 11]: 0.20%
- HPLC/RRT Purity, RRT 1.00 (purity of III-1) [5, 12]: 91.45%
- HPLC/RRT Purity, impurity at RRT 0.41 [5, 12]: 0.19%
- HPLC/RRT Purity, impurity at RRT 0.74 [5, 12]: 3.45%
- HPLC/RRT Purity, impurity at RRT 0.94 [5, 12]: 0.67%
- HPLC/RRT Purity, impurity at RRT 0.96 [5, 12]: 0.40%
- HPLC/RRT Purity, impurity at RRT 1.26 [5, 12]: 0.58%
- HPLC/RRT Purity, impurity at RRT 1.37 [5, 12]: 2.26%
- HPLC/RRT Purity, impurity at RRT 1.38 [5, 12]: 0.23%
- HPLC/RRT Purity, RRT 1.00 (purity of III-1) [5, 13]: 95.98%
- HPLC/RRT Purity, impurity at RRT 0.41 [5, 13]: 0.10%
- HPLC/RRT Purity, impurity at RRT 0.74 [5, 13]: 0.15%
- HPLC/RRT Purity, impurity at RRT 0.94 [5, 13]: 0.59%
- HPLC/RRT Purity, impurity at RRT 1.37 [5, 13]: 2.33%
- HPLC/RRT Purity, impurity at RRT 1.38 [5, 13]: 0.29%

Structure (SMILES): [2H][C@@]1(c2cc(F)ccc2Cl)NC(=O)c2cc(-c3ccc4ncnn4c3C#N)cc(NC(=O)c3cc(F)cc(C(F)(F)F)c3)c21 [IV-2]
- IC50 [6]: ≤ 1000 nM

Structure (SMILES): N#Cc1c(-c2cc(NC(=O)c3cc(F)cc(C(F)(F)F)c3)c3c(c2)C(=O)N[C@@H]3c2cc(F)ccc2Cl)ccc2ncnn12 [II-1, (S)-N-(3-(2-chloro-5-fluorophenyl)-6-(5-cyano-[1,2,4]triazolo[1,5-a]pyridin-6-yl)-1-oxoisoindolin-4-yl)-3-fluoro-5-(trifluoromethyl)benzamide]
- XRPD (6 days) ([3]; equilibration of II-1 in 1,4-dioxane, 50° C.): II-1 Form B
- ee %(SFC) ([3]; equilibration of II-1 in 1,4-dioxane, 50° C., 6 days): ee %(SFC): −99.48%*
- ee %(SFC) ([3]; equilibration of II-1 in ACN/water(80:20, v/v), 50° C., 6 days): ee %(SFC): −99.24%*
- ee %(SFC) ([3]; equilibration of II-1 in EtOH/water(50:50, v/v), 50° C., 6 days): ee %(SFC): −99.78%*
- ee %(SFC) ([3]; equilibration of II-1 in Methanol, 50° C., 6 days): ee %(SFC): −99.66%*
- XRPD (6 days) ([3]; equilibration of II-1 in THF/water(85:15, v/v) a.w. 0.9, 25° C.): II-1 Form C (include the
- ee %(SFC) ([3]; equilibration of II-1 in THF/water(85:15, v/v), 25° C., 6 days): ee %(SFC): −99.34%*
- racemization in solution ([7]; basic glassware, promoted by light): Noticeable racemization
- racemization in solution ([7]; neutral and acidic glassware, absence and presence of light, up to 13 days): no significant racemization

Structure (SMILES): O=C(O)CC(O)(CC(=O)O)C(=O)O [Citric acid]
- pKa(s) [1]: 3.12, 4.76, 6.39
